# Reference: patent US20260297081A1, “COMPOUNDS AND METHODS OF TREATING CANCERS” (Cullgen Inc., priority 2023, published 2026)
# System: MCF7 cells
# Assay: Anti-proliferation (viability) of MCF7 cells (Table 7, FIG. 2B)
# Assay type: cell-based
# Details: Homo sapiens, MCF7, MCF7 cells, 3-6 days, 10-point serial dilution; read-out: GI IC50 in MCF-7
row,SMILES,IC50
1,"CNc1ccc(C(=O)Nc2ccc(N(C)C)nn2)c(NC2CC(C(=O)NC3CCC4(CC3)CCN(c3ccc(Nc5ncc6c(C)c(C(C)=O)c(=O)n(C7CCCC7)c6n5)nc3)CC4)C2)n1 (centres unmarked) [CPD-388, 2-((3-((3-(6-((6-acetyl-8-cyclopentyl-5-methyl-7-oxo-7,8-dihydropyrido[2,3-d]pyrimidin-2-yl)amino)pyridin-3-yl)-3-azaspiro[5.5]undecan-9-yl)carbamoyl)cyclobutyl)amino)-N-(6-(dimethylamino)pyridazin-3-yl)-6-(methylamino)nicotinamide]",> 100 nM
2,"CC(=O)c1c(C)c2cnc(Nc3ccc(N4CCC(N5CCC(C(=O)N6CC7(CC(Nc8nc(NC(C)C)ccc8C(=O)Nc8ccc(N(C)C)nn8)C7)C6)C5)CC4)cn3)nc2n(C2CCCC2)c1=O (centres unmarked) [CPD-398, 2-((2-(1-(1-(6-((6-acetyl-8-cyclopentyl-5-methyl-7-oxo-7,8-dihydropyrido[2,3-d]pyrimidin-2-yl)amino)pyridin-3-yl)piperidin-4-yl)pyrrolidine-3-carbonyl)-2-azaspiro[3.3]heptan-6-yl)amino)-N-(6-(dimethylamino)pyridazin-3-yl)-6-(isopropylamino)nicotinamide]",50 to 100 nM
3,"CCn1nc(NC(=O)c2ccc(NC)nc2NC2CC3(CC(NC(=O)CN4CCN(c5ccc(Nc6ncc7c(C)c(C(C)=O)c(=O)n(C8CCCC8)c7n6)nc5)CC4)C3)C2)cc1C (centres unmarked) [CPD-312, 2-((6-(2-(4-(6-((6-acetyl-8-cyclopentyl-5-methyl-7-oxo-7,8-dihydropyrido[2,3-d]pyrimidin-2-yl)amino)pyridin-3-yl)piperazin-1-yl)acetamido)spiro[3.3]heptan-2-yl)amino)-N-(1-ethyl-5-methyl-1H-pyrazol-3-yl)-6-(methylamino)nicotinamide]",> 100 nM
4,"CNc1ccc(C(=O)Nc2cn(C)c(C3CC3)n2)c(NC2CCC3(CC2)CC(NC(=O)CN2CCN(c4ccc(Nc5ncc6c(C)c(C(C)=O)c(=O)n(C7CCCC7)c6n5)nc4)CC2)C3)n1 (centres unmarked) [CPD-347, 2-((2-(2-(4-(6-((6-acetyl-8-cyclopentyl-5-methyl-7-oxo-7,8-dihydropyrido[2,3-d]pyrimidin-2-yl)amino)pyridin-3-yl)piperazin-1-yl)acetamido)spiro[3.5]nonan-7-yl)amino)-N-(2-cyclopropyl-1-methyl-1H-imidazol-4-yl)-6-(methylamino)nicotinamide]",> 100 nM
5,"CC(=O)c1c(C)c2cnc(Nc3ccc(N4CCC5(CC4)CC5C(=O)N4CCC(Nc5nc(NC(C)C)ccc5C(=O)Nc5cc(C)on5)CC4)cn3)nc2n(C2CCCC2)c1=O (centres unmarked) [CPD-419, 2-((1-(6-(6-((6-acetyl-8-cyclopentyl-5-methyl-7-oxo-7,8-dihydropyrido[2,3-d]pyrimidin-2-yl)amino)pyridin-3-yl)-6-azaspiro[2.5]octane-1-carbonyl)piperidin-4-yl)amino)-6-(isopropylamino)-N-(5-methylisoxazol-3-yl)nicotinamide]",< 50 nM
6,"CC(=O)c1c(C)c2cnc(Nc3ccc(N4CCC5(CCN(CC(=O)N6CC7(CC(Nc8nc(NC(C)C)ccc8C(=O)Nc8cn(C)c(C9CC9)n8)C7)C6)C5)C4)cn3)nc2n(C2CCCC2)c1=O (centres unmarked) [CPD-444, 2-((2-(2-(7-(6-((6-acetyl-8-cyclopentyl-5-methyl-7-oxo-7,8-dihydropyrido[2,3-d]pyrimidin-2-yl)amino)pyridin-3-yl)-2,7-diazaspiro[4.4]nonan-2-yl)acetyl)-2-azaspiro[3.3]heptan-6-yl)amino)-N-(2-cyclopropyl-1-methyl-1H-imidazol-4-yl)-6-(isopropylamino)nicotinamide]",< 50 nM
7,"[2H]C([2H])([2H])Nc1ccc(C(=O)Nc2ccc(N(C)C)nn2)c(NC2CC3(CC(NC(=O)C4CC45CCN(c4ccc(Nc6ncc7c(C)c(C(C)=O)c(=O)n(C8CCCC8)c7n6)nc4)CC5)C3)C2)n1 (centres unmarked) [CPD-439, 6-(6-((6-acetyl-8-cyclopentyl-5-methyl-7-oxo-7,8-dihydropyrido[2,3-d]pyrimidin-2-yl)amino)pyridin-3-yl)-N-(6-((3-((6-(dimethylamino)pyridazin-3-yl)carbamoyl)-6-((methyl-d3)amino)pyridin-2-yl)amino)spiro[3.3]heptan-2-yl)-6-azaspiro[2.5]octane-1-carboxamide]",< 50 nM
8,"CC(=O)c1c(C)c2cnc(Nc3ccc(N4CCN(C(C)CC(=O)N5CCC(Nc6nc(NC(C)C)ccc6C(=O)Nc6ccc(N(C)C)nn6)C5)CC4)cn3)nc2n(C2CCCC2)c1=O (centres unmarked) [CPD-370, 2-((1-(3-(4-(6-((6-acetyl-8-cyclopentyl-5-methyl-7-oxo-7,8-dihydropyrido[2,3-d]pyrimidin-2-yl)amino)pyridin-3-yl)piperazin-1-yl)butanoyl)pyrrolidin-3-yl)amino)-N-(6-(dimethylamino)pyridazin-3-yl)-6-(isopropylamino)nicotinamide]",< 50 nM
9,"CNc1ccc(C(=O)Nc2ccc(N(C)C)nn2)c(NC2CC(OC(=O)N3CCN(c4ccc(Nc5ncc6c(C)c(C(C)=O)c(=O)n(C7CCCC7)c6n5)nc4)CC3)C2)n1 (centres unmarked) [CPD-311, 3-((3-((6-(dimethylamino)pyridazin-3-yl)carbamoyl)-6-(methylamino)pyridin-2-yl)amino)cyclobutyl 4-(6-((6-acetyl-8-cyclopentyl-5-methyl-7-oxo-7,8-dihydropyrido[2,3-d]pyrimidin-2-yl)amino)pyridin-3-yl)piperazine-1-carboxylate]",> 100 nM
10,"CC(=O)c1c(C)c2cnc(Nc3ccc(N4CCN(CC(=O)NC(C)(C)C5CC(Nc6nc(NC(C)C)ccc6C(=O)Nc6cc(C)on6)C5)CC4)cn3)nc2n(C2CCCC2)c1=O (centres unmarked) [CPD-410, 2-((3-(2-(2-(4-(6-((6-acetyl-8-cyclopentyl-5-methyl-7-oxo-7,8-dihydropyrido[2,3-d]pyrimidin-2-yl)amino)pyridin-3-yl)piperazin-1-yl)acetamido)propan-2-yl)cyclobutyl)amino)-6-(isopropylamino)-N-(5-methylisoxazol-3-yl)nicotinamide]",> 100 nM
11,"CC(=O)c1c(C)c2cnc(Nc3ccc(N4CCN(CC(=O)NCC5CC(Nc6ccc(C(F)(F)F)cc6C(=O)Nc6cc(C)n(C)n6)C5)CC4)cn3)nc2n(C2CCCC2)c1=O (centres unmarked) [CPD-262, 2-((3-((2-(4-(6-((6-acetyl-8-cyclopentyl-5-methyl-7-oxo-7,8-dihydropyrido[2,3-d]pyrimidin-2-yl)amino)pyridin-3-yl)piperazin-1-yl)acetamido)methyl)cyclobutyl)amino)-N-(1,5-dimethyl-1H-pyrazol-3-yl)-5-(trifluoromethyl)benzamide]",> 100 nM
12,"CC(=O)c1c(C)c2cnc(Nc3ccc(N4CCC(N5CCC(C(=O)N6CCC(Nc7nc(NC(C)C)ccc7C(=O)Nc7ccc(N(C)C)nn7)C6)C5)CC4)cn3)nc2n(C2CCCC2)c1=O (centres unmarked) [CPD-395, 2-((1-(1-(1-(6-((6-acetyl-8-cyclopentyl-5-methyl-7-oxo-7,8-dihydropyrido[2,3-d]pyrimidin-2-yl)amino)pyridin-3-yl)piperidin-4-yl)pyrrolidine-3-carbonyl)pyrrolidin-3-yl)amino)-N-(6-(dimethylamino)pyridazin-3-yl)-6-(isopropylamino)nicotinamide]",> 100 nM
13,"CC(=O)c1c(C)c2cnc(Nc3ccc(N4CCC(N5CCC(C(=O)NC6CC7(C6)CC(Nc6nc(NC(C)C)ccc6C(=O)Nc6ccc(N(C)C)nn6)C7)C5)CC4)cn3)nc2n(C2CCCC2)c1=O (centres unmarked) [CPD-397, 2-((6-(1-(1-(6-((6-acetyl-8-cyclopentyl-5-methyl-7-oxo-7,8-dihydropyrido[2,3-d]pyrimidin-2-yl)amino)pyridin-3-yl)piperidin-4-yl)pyrrolidine-3-carboxamido)spiro[3.3]heptan-2-yl)amino)-N-(6-(dimethylamino)pyridazin-3-yl)-6-(isopropylamino)nicotinamide]",< 50 nM
14,"CNc1ccc(C(=O)Nc2ccc(N(C)C)nn2)c(NC2CC(C(=O)NC3CCC4(CCN(c5ccc(Nc6ncc7c(C)c(C(C)=O)c(=O)n(C8CCCC8)c7n6)nc5)CC4)C3)C2)n1 (centres unmarked) [CPD-428, 2-((3-((8-(6-((6-acetyl-8-cyclopentyl-5-methyl-7-oxo-7,8-dihydropyrido[2,3-d]pyrimidin-2-yl)amino)pyridin-3-yl)-8-azaspiro[4.5]decan-2-yl)carbamoyl)cyclobutyl)amino)-N-(6-(dimethylamino)pyridazin-3-yl)-6-(methylamino)nicotinamide]",> 100 nM
15,"[2H]C([2H])([2H])Nc1ccc(C(=O)Nc2ccc(N(C)C)nn2)c(NC2CC3(C2)CC(C(=O)N2CCC4(CCN(c5ccc(Nc6ncc7c(C)c(C(C)=O)c(=O)n(C8CCCC8)c7n6)nc5)CC4)C2)C3)n1 (centres unmarked) [CPD-380, 2-((6-(8-(6-((6-acetyl-8-cyclopentyl-5-methyl-7-oxo-7,8-dihydropyrido[2,3-d]pyrimidin-2-yl)amino)pyridin-3-yl)-2,8-diazaspiro[4.5]decane-2-carbonyl)spiro[3.3]heptan-2-yl)amnion)-N-(6-(dimethylamino)pyridazin-3-yl)-6-((methyl-d3)amnion)nicotinamide]",> 100 nM
16,"[2H]C([2H])([2H])Nc1ccc(C(=O)Nc2ccc(N(C)C)nn2)c(NC2CC23CCN(C(=O)CC(C)N2CCN(c4ccc(Nc5ncc6c(C)c(C(C)=O)c(=O)n(C7CCCC7)c6n5)nc4)CC2)CC3)n1 (centres unmarked) [CPD-383, 2-((6-(3-(4-(6-((6-acetyl-8-cyclopentyl-5-methyl-7-oxo-7,8-dihydropyrido[2,3-d]pyrimidin-2-yl)amino)pyridin-3-yl)piperazin-1-yl)butanoyl)-6-azaspiro[2.5]octan-1-yl)amino)-N-(6-(dimethylamino)pyridazin-3-yl)-6-((methyl-d3)amino)nicotinamide]",> 100 nM

# Same assay, conditions: MCF7 cells, 3-6 days, 10-point serial dilution; read-out: GI IC50 in MCF-7
row,SMILES,IC50
1,"CC(=O)c1c(C)c2cnc(Nc3ccc(N4CCN(C5CCN(C(=O)C6(O)CCC(Nc7nc(NC(C)C)ccc7C(=O)Nc7ccc(N(C)C)nn7)CC6)C5)CC4)cn3)nc2n(C2CCCC2)c1=O (stereo not drawn) [CPD-575, 2-((trans-4-(3-(4-(6-((6-acetyl-8-cyclopentyl-5-methyl-7-oxo-7,8-dihydropyrido[2,3-d]pyrimidin-2-yl)amino)pyridin-3-yl)piperazin-1-yl)pyrrolidine-1-carbonyl)-4-hydroxycyclohexyl)amino)-N-(6-(dimethylamino)pyridazin-3-yl)-6-(isopropylamino)nicotinamide]",> 100 nM
